Source: ChEMBL document CHEMBL3864133, “Discovery of a Potent and Selective in Vivo Probe (GNE-272) for the Bromodomains of CBP/EP300” (J Med Chem, 2016)
pIC50: −log10 of the molar value. Activity calls are given as the source filed them. No cut-off for these calls is given here.

Tests used:
[1] = Apparent permeability of the compound across apical side to basolateral side in MDCK cells at 10 uM measured after 180 mins by LC-MS/MS analysis; type: ADME, cell-based, Canis lupus familiaris; settings: dog
[2] = Protein binding in nu/nu mouse plasma at 5 uM measured after 4 hrs by LC-MS/MS analysis; type: ADME, cell-free; settings: read-out: PPB (converted)
[3] = Clearance in nu/nu mouse at 1 mg/kg, iv by LC-MS/MS analysis; type: ADME, organism-based; settings: in vivo
[4] = Half life in nu/nu mouse at 1 mg/kg, iv or 100 mg/kg, po by LC-MS/MS analysis; type: ADME, organism-based; settings: in vivo
[5] = Volume of distribution at steady state in nu/nu mouse at 1 mg/kg, iv or 100 mg/kg, po by LC-MS/MS analysis; type: ADME, organism-based; settings: in vivo, read-out: Vdss
[6] = Cmax in nu/nu mouse at 100 mg/kg, po by LC-MS/MS analysis; type: ADME, organism-based; set-up: dose 100 mg/kg, route oral; settings: in vivo
[7] = fCmax in nu/nu mouse at 100 mg/kg, po by LC-MS/MS analysis; type: ADME, organism-based; settings: in vivo
Cytochrome P450 3A4 = Cytochrome P450 3A4 (Homo sapiens, UniProt P08684); experiment: Inhibition of CYP3A4 in human liver microsomes assessed as formation of 6beta-hydroxytestosterone from testosterone measured after 10 mins in presence of NADPH by LC-MS/MS analysis; type: ADME; settings: read-out: INH
Cytochrome P450 2C19 = Cytochrome P450 2C19 (Homo sapiens, UniProt P33261); experiment: Inhibition of CYP2C19 in human liver microsomes assessed as formation of 4-hydroxymephenytoin from mephenytoin measured after 40 mins in presence of NADPH by LC-MS/MS analysis; type: ADME
[8] = biological target: T1, CREB-binding protein/Histone acetyltransferase p300 (Homo sapiens, UniProt Q09472+Q92793); experiment: Inhibition of CBP/EP300 in human HL60 cells assessed as decrease in MYC expression at 5 uM measured after 4 hrs by RT-PCR analysis relative to DMSO control; type: cell-based; settings: HL-60
[9] = biological target: T1, CREB-binding protein/Histone acetyltransferase p300; experiment: Inhibition of CBP/EP300 in human LP-1 cells assessed as decrease in MYC expression at 5 uM measured after 4 hrs by RT-PCR analysis relative to DMSO control; type: cell-based
[10] = biological target: T1, CREB-binding protein/Histone acetyltransferase p300; experiment: Inhibition of CBP/EP300 in human KMS34 cells assessed as decrease in MYC expression at 5 uM measured after 4 hrs by RT-PCR analysis relative to DMSO control; type: cell-based
[11] = biological target: T1, CREB-binding protein/Histone acetyltransferase p300; experiment: Inhibition of CBP/EP300 in human Pfeiffer cells assessed as decrease in MYC expression at 5 uM measured after 4 hrs by RT-PCR analysis relative to DMSO control; type: cell-based
[12] = biological target: T1, CREB-binding protein/Histone acetyltransferase p300; experiment: Inhibition of CBP/EP300 in human MOLM16 cells assessed as suppression of CCND1 expression at 5 uM measured after 4 hrs by RT-PCR analysis relative to DMSO control; type: cell-based
[13] = biological target: T1, CREB-binding protein/Histone acetyltransferase p300; experiment: Inhibition of CBP/EP300 in human MOLM16 cells assessed as suppression of BCL2 expression at 5 uM measured after 4 hrs by RT-PCR analysis relative to DMSO control; type: cell-based
[14] = biological target: T1, CREB-binding protein/Histone acetyltransferase p300; experiment: Inhibition of CBP/EP300 in human MOLM16 cells assessed as suppression of BCL-XL expression at 5 uM measured after 4 hrs by RT-PCR analysis relative to DMSO control; type: cell-based
[15] = biological target: T1, CREB-binding protein/Histone acetyltransferase p300; experiment: Inhibition of CBP/EP300 in human MOLM16 cells assessed as suppression of BCL6 expression at 5 uM measured after 4 hrs by RT-PCR analysis relative to DMSO control; type: cell-based
[16] = biological target: T1, CREB-binding protein/Histone acetyltransferase p300; experiment: Inhibition of CBP/EP300 in human MOLM16 cells assessed as decrease in MYC expression measured after 4 hrs by RT-PCR analysis; type: cell-based
[17] = biological target: T1, CREB-binding protein/Histone acetyltransferase p300; experiment: Inhibition of CBP/EP300 in human MOLM16 cells assessed as decrease in MYC expression at 0.1 to 1 uM measured after 4 hrs Western blot analysis; type: cell-based
Jurkat = experiment: Antiproliferative activity against human Jurkat cells measured after 6 days by CellTiter-Glo assay; type: functional, cell-based
DOHH-2 = experiment: Antiproliferative activity against human DOHH2 cells measured after 6 days by CellTiter-Glo assay; type: functional, cell-based
KMS26 = experiment: Antiproliferative activity against human KMS26 cells measured after 6 days by CellTiter-Glo assay; type: functional, cell-based
KMS34 = experiment: Antiproliferative activity against human KMS34 cells measured after 6 days by CellTiter-Glo assay; type: functional, cell-based
Pfeiffer = experiment: Antiproliferative activity against human Pfeiffer cells measured after 6 days by CellTiter-Glo assay; type: functional, cell-based
MOLM16 [18] = experiment: Antiproliferative activity against human MOLM16 cells measured after 6 days by CellTiter-Glo assay; type: functional, cell-based
EJM = experiment: Antiproliferative activity against human EJM cells measured after 6 days by CellTiter-Glo assay; type: functional, cell-based
LP-1 = experiment: Antiproliferative activity against human LP-1 cells measured after 6 days by CellTiter-Glo assay; type: functional, cell-based
U-266 = experiment: Antiproliferative activity against human U266B1 cells measured after 6 days by CellTiter-Glo assay; type: functional, cell-based
Kasumi 1 = experiment: Antiproliferative activity against human Kasumi-1 cells measured after 6 days by CellTiter-Glo assay; type: functional, cell-based
THP2 = experiment: Antiproliferative activity against human THP2 cells measured after 6 days by CellTiter-Glo assay; type: functional, cell-based
KMS-11 = experiment: Antiproliferative activity against human KMS11 cells measured after 6 days by CellTiter-Glo assay; type: functional, cell-based
[19] = Decrease in MYC mRNA expression in tumor of SCID beige mouse xenografted with human MOLM16 cells at 10 mg/kg, po administered twice daily via gavage as single dose measured after 2 to 8 hrs by RT-PCR analysis; type: functional, organism-based
[20] = Decrease in MYC mRNA expression in tumor of SCID beige mouse xenografted with human MOLM16 cells at 100 mg/kg, po administered twice daily via gavage as single dose measured after 2 hrs by RT-PCR analysis relative to control; type: functional, organism-based
[21] = Antitumor activity against human MOLM16 cells xenografted in SCID beige mouse assessed as tumor growth inhibition at 25 mg/kg, po BID administered through gavage for 21 days; type: functional; settings: read-out: TGI
[22] = Antitumor activity against human MOLM16 cells xenografted in SCID beige mouse assessed as tumor growth inhibition at 50 mg/kg, po BID administered through gavage for 21 days; type: functional; settings: read-out: TGI
MOLM16 [23] = experiment: Antitumor activity against human MOLM16 cells xenografted in SCID beige mouse assessed as tumor growth inhibition compound administered through oral gavage twice daily for 21 days; type: functional, cell-based
Mus musculus [24] = experiment: Toxicity in SCID beige mouse xenografted with human MOLM16 cells assessed as body weight loss at 12.5 to 50 mg/kg, po BID administered through gavage for 21 days; type: organism-based; settings: in vivo
Mus musculus [25] = experiment: Inhibition of MYC mRNA expression in SCID beige mouse xenografted with human MOLM16 cells assessed as MYC transcript level at 3 to 100 mg/kg, po administered twice daily via gavage as single dose measured after 24 hrs by RT-PCR analysis relative to control; type: functional; set-up: scale not given: the % may be the effect or the level left
[26] = Time at which unbound drug level in SCID beige mouse tumor stays above cellular MYC EC90 at 10 mg/kg, po administered twice daily via gavage as single dose; type: ADME, organism-based; settings: in vivo

T1 sequence (Q09472 whole entry, looked up): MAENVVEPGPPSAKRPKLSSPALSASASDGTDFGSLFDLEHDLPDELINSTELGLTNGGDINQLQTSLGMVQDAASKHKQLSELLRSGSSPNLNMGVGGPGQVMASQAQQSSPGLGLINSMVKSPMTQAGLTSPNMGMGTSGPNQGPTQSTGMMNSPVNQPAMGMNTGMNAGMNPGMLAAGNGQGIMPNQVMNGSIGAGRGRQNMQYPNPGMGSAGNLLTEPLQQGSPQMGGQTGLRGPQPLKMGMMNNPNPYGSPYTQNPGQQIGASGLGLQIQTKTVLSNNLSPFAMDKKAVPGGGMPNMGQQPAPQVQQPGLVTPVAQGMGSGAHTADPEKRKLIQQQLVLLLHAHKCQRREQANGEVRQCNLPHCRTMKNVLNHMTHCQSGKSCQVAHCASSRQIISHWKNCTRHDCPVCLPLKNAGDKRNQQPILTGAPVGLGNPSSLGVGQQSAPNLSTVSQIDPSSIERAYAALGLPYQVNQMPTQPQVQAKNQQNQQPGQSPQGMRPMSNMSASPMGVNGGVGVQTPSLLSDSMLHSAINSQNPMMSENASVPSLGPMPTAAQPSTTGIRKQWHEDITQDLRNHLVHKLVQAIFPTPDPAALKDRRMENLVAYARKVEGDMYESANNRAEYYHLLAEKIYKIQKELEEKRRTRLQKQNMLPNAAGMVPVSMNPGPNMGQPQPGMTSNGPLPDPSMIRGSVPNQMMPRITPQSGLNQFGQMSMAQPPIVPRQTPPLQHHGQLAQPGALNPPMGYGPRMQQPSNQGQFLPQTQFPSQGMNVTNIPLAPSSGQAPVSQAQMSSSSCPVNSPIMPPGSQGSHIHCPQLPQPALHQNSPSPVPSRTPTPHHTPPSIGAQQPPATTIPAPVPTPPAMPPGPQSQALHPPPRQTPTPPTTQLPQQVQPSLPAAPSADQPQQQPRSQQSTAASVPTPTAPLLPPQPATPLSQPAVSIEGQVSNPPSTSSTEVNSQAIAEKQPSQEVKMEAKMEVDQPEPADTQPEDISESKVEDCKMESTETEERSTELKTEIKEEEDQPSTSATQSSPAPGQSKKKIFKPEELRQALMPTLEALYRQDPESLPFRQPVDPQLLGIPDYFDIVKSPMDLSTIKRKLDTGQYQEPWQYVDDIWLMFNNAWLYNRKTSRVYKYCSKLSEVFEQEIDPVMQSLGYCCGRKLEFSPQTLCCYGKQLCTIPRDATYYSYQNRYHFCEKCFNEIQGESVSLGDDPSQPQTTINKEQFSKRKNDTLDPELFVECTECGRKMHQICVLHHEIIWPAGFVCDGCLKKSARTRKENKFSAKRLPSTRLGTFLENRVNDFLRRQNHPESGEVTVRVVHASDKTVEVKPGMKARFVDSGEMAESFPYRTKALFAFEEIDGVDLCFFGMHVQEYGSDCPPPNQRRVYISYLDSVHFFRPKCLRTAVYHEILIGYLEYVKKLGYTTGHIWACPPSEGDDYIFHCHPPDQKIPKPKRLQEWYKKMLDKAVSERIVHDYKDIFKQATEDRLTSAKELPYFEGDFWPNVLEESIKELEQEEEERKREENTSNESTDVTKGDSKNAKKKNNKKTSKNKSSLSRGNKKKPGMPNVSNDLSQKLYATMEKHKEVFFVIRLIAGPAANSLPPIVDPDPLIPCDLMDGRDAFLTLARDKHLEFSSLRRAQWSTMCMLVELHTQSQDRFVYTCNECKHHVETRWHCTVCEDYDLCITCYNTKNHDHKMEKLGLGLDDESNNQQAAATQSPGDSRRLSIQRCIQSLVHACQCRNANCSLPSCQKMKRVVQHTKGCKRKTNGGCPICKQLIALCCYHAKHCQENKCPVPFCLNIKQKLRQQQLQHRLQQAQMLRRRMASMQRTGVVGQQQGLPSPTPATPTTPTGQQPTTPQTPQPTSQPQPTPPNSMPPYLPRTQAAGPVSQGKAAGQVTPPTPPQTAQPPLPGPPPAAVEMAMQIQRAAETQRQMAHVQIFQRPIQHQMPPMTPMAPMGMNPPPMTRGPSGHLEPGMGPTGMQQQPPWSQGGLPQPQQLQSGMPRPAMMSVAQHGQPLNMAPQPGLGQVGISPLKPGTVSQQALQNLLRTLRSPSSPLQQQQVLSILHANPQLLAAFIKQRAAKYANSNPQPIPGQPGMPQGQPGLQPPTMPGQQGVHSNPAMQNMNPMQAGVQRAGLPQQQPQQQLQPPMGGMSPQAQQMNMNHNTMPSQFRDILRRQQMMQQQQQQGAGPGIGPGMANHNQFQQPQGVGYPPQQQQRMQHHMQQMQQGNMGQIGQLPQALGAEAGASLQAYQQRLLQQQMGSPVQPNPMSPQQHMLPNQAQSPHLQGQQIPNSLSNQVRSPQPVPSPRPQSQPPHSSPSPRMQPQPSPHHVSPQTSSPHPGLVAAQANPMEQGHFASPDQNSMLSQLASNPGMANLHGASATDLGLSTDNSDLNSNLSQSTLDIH
T1 sequence (Q92793 whole entry, looked up): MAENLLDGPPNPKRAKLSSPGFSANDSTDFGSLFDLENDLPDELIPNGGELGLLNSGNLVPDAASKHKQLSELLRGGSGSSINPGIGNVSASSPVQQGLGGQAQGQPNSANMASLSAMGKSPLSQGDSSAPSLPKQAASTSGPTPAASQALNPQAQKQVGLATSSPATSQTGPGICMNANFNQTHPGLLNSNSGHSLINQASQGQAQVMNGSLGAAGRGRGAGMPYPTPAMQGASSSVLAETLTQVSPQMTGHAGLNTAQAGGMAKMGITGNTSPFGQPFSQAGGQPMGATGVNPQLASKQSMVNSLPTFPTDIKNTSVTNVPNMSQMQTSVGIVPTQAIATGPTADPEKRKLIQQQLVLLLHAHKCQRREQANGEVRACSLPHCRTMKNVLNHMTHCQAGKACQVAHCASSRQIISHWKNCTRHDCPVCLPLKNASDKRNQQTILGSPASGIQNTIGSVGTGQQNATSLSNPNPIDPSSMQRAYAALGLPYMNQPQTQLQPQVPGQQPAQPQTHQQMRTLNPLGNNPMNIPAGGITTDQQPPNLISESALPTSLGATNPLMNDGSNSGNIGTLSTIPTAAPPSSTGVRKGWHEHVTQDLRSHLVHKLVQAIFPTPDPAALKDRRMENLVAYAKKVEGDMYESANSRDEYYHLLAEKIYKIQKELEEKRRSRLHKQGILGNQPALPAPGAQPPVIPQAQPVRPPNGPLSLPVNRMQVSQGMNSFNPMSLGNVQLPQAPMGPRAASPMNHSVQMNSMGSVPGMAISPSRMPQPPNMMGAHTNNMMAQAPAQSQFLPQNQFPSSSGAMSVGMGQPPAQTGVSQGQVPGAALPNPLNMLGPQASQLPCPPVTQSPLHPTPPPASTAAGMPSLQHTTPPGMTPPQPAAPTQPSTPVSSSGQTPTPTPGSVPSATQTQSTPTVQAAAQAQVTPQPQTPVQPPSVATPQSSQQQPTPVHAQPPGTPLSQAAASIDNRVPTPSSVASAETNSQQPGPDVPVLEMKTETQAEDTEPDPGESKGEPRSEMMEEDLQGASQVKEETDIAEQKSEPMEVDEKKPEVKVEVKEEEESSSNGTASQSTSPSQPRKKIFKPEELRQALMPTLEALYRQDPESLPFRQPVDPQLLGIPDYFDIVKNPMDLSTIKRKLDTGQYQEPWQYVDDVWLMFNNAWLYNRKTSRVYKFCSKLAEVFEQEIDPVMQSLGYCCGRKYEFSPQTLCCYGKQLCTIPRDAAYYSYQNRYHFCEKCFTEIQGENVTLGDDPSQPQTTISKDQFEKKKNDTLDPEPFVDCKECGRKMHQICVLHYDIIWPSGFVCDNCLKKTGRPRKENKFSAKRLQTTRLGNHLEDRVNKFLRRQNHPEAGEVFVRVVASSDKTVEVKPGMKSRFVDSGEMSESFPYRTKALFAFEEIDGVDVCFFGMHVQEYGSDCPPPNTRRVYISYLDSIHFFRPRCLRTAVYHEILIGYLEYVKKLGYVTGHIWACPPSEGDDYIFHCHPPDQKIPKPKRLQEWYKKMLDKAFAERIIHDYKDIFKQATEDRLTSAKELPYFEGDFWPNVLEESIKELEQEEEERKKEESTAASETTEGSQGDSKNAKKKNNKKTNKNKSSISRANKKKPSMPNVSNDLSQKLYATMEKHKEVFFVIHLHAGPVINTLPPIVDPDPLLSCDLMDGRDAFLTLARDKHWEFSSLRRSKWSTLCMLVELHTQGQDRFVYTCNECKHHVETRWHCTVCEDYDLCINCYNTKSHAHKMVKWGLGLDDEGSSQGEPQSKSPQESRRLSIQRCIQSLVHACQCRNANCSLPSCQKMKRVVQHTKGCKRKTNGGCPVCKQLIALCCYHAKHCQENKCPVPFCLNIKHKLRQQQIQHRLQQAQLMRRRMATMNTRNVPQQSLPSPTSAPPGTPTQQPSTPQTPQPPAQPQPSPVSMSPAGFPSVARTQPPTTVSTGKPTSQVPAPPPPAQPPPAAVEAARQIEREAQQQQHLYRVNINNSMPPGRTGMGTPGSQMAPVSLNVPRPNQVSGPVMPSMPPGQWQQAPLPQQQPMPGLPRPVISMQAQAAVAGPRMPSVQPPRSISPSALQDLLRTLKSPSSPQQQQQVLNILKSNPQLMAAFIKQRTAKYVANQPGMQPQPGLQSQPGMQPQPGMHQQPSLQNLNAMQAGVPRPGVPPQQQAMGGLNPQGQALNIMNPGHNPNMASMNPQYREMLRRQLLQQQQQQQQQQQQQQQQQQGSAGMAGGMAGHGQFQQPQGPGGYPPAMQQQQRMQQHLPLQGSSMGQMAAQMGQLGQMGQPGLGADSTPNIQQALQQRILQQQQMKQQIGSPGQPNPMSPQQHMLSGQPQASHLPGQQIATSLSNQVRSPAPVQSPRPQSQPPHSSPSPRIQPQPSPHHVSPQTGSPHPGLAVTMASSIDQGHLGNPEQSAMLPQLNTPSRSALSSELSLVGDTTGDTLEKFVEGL

For `CC(=O)N1CCc2c(c(Nc3ccc(-c4cnn(C)c4)cc3F)nn2[C@@H]2CCOC2)C1`, which Papp A→B at 3 h, 10 µM [1] is on record?
Its Papp A→B at 3 h, 10 µM is 15 ×10⁻⁶ cm/s.

What about the fraction unbound at 4 h, 5 µM [2] of the same compound?
The fraction unbound at 4 h, 5 µM was 0.16.

And the clearance [3]?
The clearance was 9.6 mL/min/kg.

And the half-life [4]?
The half-life was 2 h.

What about the Vd [5] of the same compound?
The Vd was 1.5 L/kg.

And the Cmax [6]?
Its Cmax is 163 µM.

And the fCmax [7]?
Its fCmax is 26 µM.

And the pIC50 (Cytochrome P450 3A4)?
Its pIC50 is under 5.00.

And the INH (Cytochrome P450 2C19)?
Its INH is over 10 µM.

What about the inhibition [8] of the same compound?
The inhibition was “Active”.

And the inhibition [9]?
The inhibition was “Active”.

And the inhibition [10]?
The inhibition was “Active”.

What about the inhibition [11] of the same compound?
Its inhibition is “Active”.

What about the inhibition [12] of the same compound?
Its inhibition is “Active”.

And the inhibition [13]?
The inhibition was “Active”.

And the inhibition [14]?
The inhibition was “Active”.

And the inhibition [15]?
The inhibition was “Active”.

What about the EC90 [16] of the same compound?
The EC90 was 621 nM.

What about the inhibition [17] of the same compound?
The inhibition was “Active”.

And the Activity (Jurkat)?
The Activity was “Active”.

What about the Activity (DOHH-2) of the same compound?
Its Activity is “Active”.

And the Activity (KMS26)?
Its Activity is “Active”.

And the Activity (KMS34)?
The Activity was “Active”.

And the Activity (Pfeiffer)?
The Activity was “Active”.

And the Activity (MOLM16 [18])?
Its Activity is “Active”.

What about the Activity (EJM) of the same compound?
The Activity was “Active”.

And the Activity (LP-1)?
Its Activity is “Active”.

What about the Activity (U-266) of the same compound?
The Activity was “Active”.

What about the Activity (Kasumi 1) of the same compound?
Its Activity is “Active”.

And the Activity (THP2)?
The Activity was “Active”.

And the Activity (KMS-11)?
Its Activity is “Active”.

What about the inhibition [19] of the same compound?
Its inhibition is “Active”.

What about the inhibition [20] of the same compound?
The inhibition was 86%.

And the inhibition in vivo at 25 mg/kg [21]?
Its inhibition in vivo at 25 mg/kg is 65%.

What about the inhibition in vivo at 50 mg/kg [22] of the same compound?
The inhibition in vivo at 50 mg/kg was 102%.

And the TGI (MOLM16 [23])?
The TGI was “Dose-dependent effect”.

And the Activity (Mus musculus [24])?
Its Activity is 7.4%.

And the Activity (Mus musculus [25])?
Its Activity is 150 - 200%.

And the Time [26]?
Its Time is 24 h.
